Experimental findings from patent US20150374709A1, “TETRA-SUBSTITUTED NDGA DERIVATIVES VIA ETHER BONDS AND CARBAMATE BONDS AND THEIR SYNTHESIS AND PHARMACEUTICAL USE” (ERIMOS PHARMACEUTICALS LLC, priority 2006, published 2015) are described below.

Where “and” joins values, the source holds several entries; their conditions need not be identical. Equal values may be shown once. Where a name gives a salt, the structure may show the parent alone. Read-outs that look alike come from different tables or passages of the source.

For one data set, the system named is Caco-2 cell monolayers. In words: Caco-2 monolayer bidirectional permeability. The class given is in vitro ADME, human. How it is done: (§1) Permeability studies were conducted by an outside contractor on behalf of the assignee of the present invention and application to determine the permeability of Compound A through Caco-2 monolayers. An important factor of oral bioavailability is the ability of e compound to be absorbed in the small intestine. Measurement of drug apparent permeability (Papp) through cell monolayers is well correlated with human intestinal absorption, and several mammalian cell lines, including Caco-2, LLC-PK1 and MDCK, are appropriate for this measurement (Artursson, P. et al., Correlation between oral drug absorption in humans and apparent drug permeability coefficients in human intestinal epithelial (Caco-2) cells. Biochem Biophys Res Comm 175:880-885 (1991); Stewart. B. H., et al., Comparison of intestinal permeabilities in multiple in vitro and in situ models: relationship to absorption in humans. Pharm Res 12:693 (1995)). P-Glycoprotein (P-gp, encoded by MDR1) is a member of the ABC transporter super family and is expressed in the human intestine, liver and other tissues. Intestinal expression of P-gp may affect the oral bioavailability of drug molecules that are substrates for this transporter. Interaction with P-gp can be studied using direct assays of drug transport in polarized cell systems such as Caco-2 cell monolayers, and human P-gp cDNA-expressing LLC-PK1 and MDCK cell monolayers. Caco-2 cells (human adenocarcinoma colonic cell line Caco-2, ATCC Cat. No. […] The cells were cultured for 21-25 days with media replacement every 3-4 days. Monolayer integrity was evaluated by pre-experimental trans-epithelial electrical resistance (TEER) measurements and post-experimental lucifer yellow A to B flux determinations. […] Receiver solution was prepared by adding 1% DMSO to transport buffer. The test solution was of Compound A in DMSO in transport buffer at a final DMSO concentration of 1%. […] The donor and receiver solutions were added to the apical or basolateral chambers of the monolayers (depending on the direction of transport to be measured). The monolayers were incubated on an orbital shaker (50 rpm) at 37° C., with ambient humidity and CO2. After 90 minutes, samples from the donor and receiver chambers were removed for analysis. […] Duplicate monolayers were used for each incubation. Samples were analyzed by LC/MS/MS using peak area ratios to an internal standard. Test article concentrations were calculated based on the peak area ratios obtained for appropriate dilutions of the donor solution containing the test article at the nominal concentration in transport buffer. Samples were diluted as appropriate to ensure that the response was within the linear range of the mass spec detector. Comparator and control samples were analyzed by liquid scintillation counting. Lucifer yellow concentrations were determined using a fluorescence plate reader.
In general terms: Caco-2 cells form a polarised layer with tight junctions and transporters.

The subject of another data set is survivin. The data set can be described thus: ELISA survivin assay (cell lysates). In kind it is cell-based, Human. The text has this:
Survivin is an inhibitor of apoptosis that is abundantly expressed in many human cancers, but not in normal adult human tissue, and is considered a possible modulator of the terminal effector phase of cell death/survival. Survivin is expressed in G2-M in a cell cycle-dependent manner, binding directly to mitotic spindle microtubules. […] Phosphorylated survivin acts on the caspase pathway to suppress the formation of caspase-3 and caspase-9, thereby inhibiting apoptosis. Thus, compounds that reduce the expression of survivin will be expected to increase the rate of apoptosis and cell death.
Effects of the tested compounds on survivin were studied following manufacturer's instructions using the Surveyor™ IC Human Total Survivin Immunoassay, Catalog No. SUV647 (R&D Systems, Inc.). Cell lysates were analyzed for survivin protein content. The kit includes a plate coated with an antibody specific for survivin and a biotinylated antibody reagent that recognizes survivin bound to the plate. The plate is read on a plate reader set at 450 nm and corrected at 540 nm. A protein assay according to the Bradford method (Bradford, M. 1976, Anal Biochem 72: 248-254) was used to quantify and normalize the samples according to total protein content. Results from a standard curve enable the user to quantify the amount of survivin protein in each sample.
In general terms: In an ELISA, binding on a coated surface is turned into a signal by an enzyme label.

Data set [1] deals with apoptosis of cells based on DNA fragmentation. In words: TiterTACS DNA fragmentation apoptosis assay. In kind it is cell-based. The note with it: TiterTACS apoptosis detection. How it is done:
Antiproliferative activity is determined using the TiterTACS® Apoptosis Detection Kit (R&D Systems Inc., Minneapolis, Minn. USA) relating to apoptosis of cells based on DNA fragmentation, and by the ELISA VEGF ([…]) and survivin assays.
In the DNA fragmentation assay, in situ detection of apoptosis is specifically achieved with TiterTACS® 96-well Apoptosis Detection kit, Catalog No. TA600 (R&D Systems, Inc.). The TiterTACS® assay provides quantification of apoptosis in cultured cells without direct counting of labeled cells using colorimetric detection. Cells are treated with the test compounds, left untreated as experimental negative controls, or treated with TACS nuclease as positive controls. TACS nuclease allows positive controls to be generated for each experimental system: a brief treatment of cells with the TACS nuclease prior to labeling generates DNA breaks in every cell, providing an appropriate positive control specific for the system under study. The TdT enzyme that catalyzes the addition of dNTPs to DNA fragments allows for colorimetric detection of at 450 nm by using a streptavidin-HRP solution followed by the TACS-Sapphire substrate. A high absorbance at 450 nm is indicative of apoptosis in the cells. Treated cells are compared to untreated cells and to nuclease-cleaved cells to assess the extent of apoptosis.

The next data set has as its system VEGF. The data set can be described thus: ELISA VEGF assay (DFO-treated cells). In kind it is cell-based, Human. An excerpt: ELISA (Enzyme-Linked ImmunoSorbent Assay) VEGF studies were done following manufacturer's instructions using the Endogen® Human VEGF ELISA kit, Catalog No. […] (Pierce Biotechnology, Inc., Rockford, Ill. USA). Hypoxic conditions are created for the cells by treating them with desferrioxamine (DFO), which chelates iron and causes the cells to secrete VEGF into the media. The supernatant (media) was removed and frozen for testing, and the cells were counted with the Trypan Blue assay so that the results can be normalized to cell count. The VEGF is measured with a sandwich ELISA that captures the protein in media on an antibody-coated microplate, and then uses a biotinylated antibody reagent to detect the protein. Results from a standard curve enable the user to quantify the amount of protein in each sample.

Data set [2] has as its system HeLa (cervical adenocarcinoma). The data set can be described thus: MTS cell viability assay, HeLa. The class given is cell-based. The settings on record: Homo sapiens, HeLa, read-out: HeLa IC50. An excerpt: (§2) Studies performed regarding cytotoxicity included the well-known MTS, Trypan Blue and MTT protocols. The MTS studies were done using the CellTiter 96®AQueous One Solution Cell Proliferation Assay (Promega Corporation, Madison, Wis. USA). Metabolically active, namely viable, cells turn MTS, a tetrazolium compound (3-(4,5-dimethylthiazol-2-yl)-5-(3-carboxymethoxyphenyl)-2-(4-sulfophenyl)-2H-tetrazolium, inner salt) into colored formazan, which is soluble in tissue culture medium. The measurement of the absorbance of the formazan is read at 490 nm. The ready to use reagent is added directly to the cells in media in 96-well plates, incubated 1-4 hours and the results are recorded by the plate reader. The IC50 is estimated by graphing the gathered data. The IC50 is the concentration of the tested material that inhibits 50% of growth or viability of the tested material compared to a control.
(§3) Three cell lines obtained from ATCC and maintained as directed by ATCC were tested: HeLa (cervical adenocarcinoma), A549 (lung carcinoma), and COS-7 (SV40 transformed monkey kidney). Studies of these cell lines are considered to be indicative of the effect of tested substances on mammalian, including human, diseases.
(§4) All compounds were dissolved in DMSO and DMSO is used as the placebo. The samples were first dissolved into 10 mM dilutions in DMSO and then diluted further to 5, 1, 0.5, 0.1, 0.05, and 0.01 mM solutions. These solutions were added to the media at a 1% concentration (1 μl to 100 μl media) to treat the cells with 100, 50, 10, 5, 1, 0.5, and 0.1 μM of the compound. […] Solutions were checked before use for precipitation, especially the 10 mM solutions. If there was precipitation, they were warmed 65° C. and added to warmed media.
(§5) Wells on a 96-well plate were seeded with 1.5-8×10^4 cells in 100 μl media and incubated overnight. The outside wells of the plate were filled with 200 μl sterile, deionized (DI) water to curb media evaporation. After 24 hours, test chemicals were prepared in media at a concentration of 1% media volume. The test sample media were added, mixing with pipette before adding 100 μl per well. Media was added to the “Media Only” wells. The well plate and its contents were incubated for 24-72 hours, depending on the study conducted. On the thy of the MTS assay, the MTS reagent was removed from the refrigerator and brought to room temperature. Using the multichannel pipette, 20 μl of the MTS reagent was added to each well and incubated for one to four hours. The plate was read at 490 nm with a reference wavelength of 690 nm after one hour in the incubator thereafter until the blank wells were at about 0.2 OD. The results were then scanned into a Microsoft® Excel® template designed to perform all necessary calculations whim data are entered. The data were checked for statistical errors; data points that are within 10% of the mean of the data points for that group were included. The average of the blanks (“Media Only”) were subtracted and the data were inserted into a chart that represents growth response, treated/untreated.
(In general: Tetrazolium dyes change colour on reduction, which living cells bring about.)

For the next data set, the system named is A549 (lung carcinoma). In words: MTS cell viability assay, A549. The class given is cell-based. The settings on record: Homo sapiens.
Source text: as §2, §3, §4, §5

Data set [3] in a line: Caco-2 monolayer bidirectional permeability. The class given is in vitro ADME, human. The settings on record: human, Caco-2, pH 7.4; control at 5 μM, 90 minutes, duplicate monolayers. How it is done: as §1
The mark [4] stands for this setting: read-out: Survivin IC50; survivin protein in cell lysates, normalized to total protein.
[5] abbreviates: A549, MTS assay, read-out: A549 IC50.

For the compound `OC[C@@H](O)[C@@H](O)[C@H](O)[C@H](O)CO` [mannitol, reference compound], in the data set on Caco-2 cell monolayers (human, Caco-2, 90 min, pH 7.4), the “Mass balance mean A to B” value amounted to 96%.

Usually IC50 stands for the midpoint of a concentration-inhibition curve. Regarding `C[C@H](Cc1ccc(OCCN(C)C)c(OCCN(C)C)c1)[C@@H](C)Cc1ccc(OCCN(C)C)c(OCCN(C)C)c1` [Compound H, 1,4-bis{3,4-bis(2-(N,N′-dimethylamino)-ethoxy)phenyl}-2,3-dimethyl-(2R,3S)-butane tetrakishydrochloride salt], the IC50 with survivin (setting [4]) came to 10 µM; in the data set on VEGF (read-out: VEGF IC50; VEGF released into media by DFO-treated cells, normalized to cell count; listed as H in H2O), 23 µM. In data set [1], the DNA fragmentation entry is recorded as “Positive”.

With `C[C@H](Cc1ccc(OCCF)c(OCCF)c1)[C@@H](C)Cc1ccc(OCCF)c(OCCF)c1` [Compound K, 1,4-bis[3,4-bis(2-fluoro-ethoxyl)phenyl]-2,3-dimethyl-(2R,3S)-butane], the IC50 (in data set [2] (MTS assay); in the data set on A549 (lung carcinoma) (setting [5])) was more than 100 µM each time.

For `C[C@H](Cc1ccc(OCCCCN2CCN(C)CC2)c(OCCCCN2CCN(C)CC2)c1)[C@@H](C)Cc1ccc(OCCCCN2CCN(C)CC2)c(OCCCCN2CCN(C)CC2)c1` [Compound O, 1,4-bis{3,4-bis[4-(N-methyl-piperazino-N′-yl)butoxyl]phenyl}-2,3-dimethyl-(2R,3S)-butane octa-hydrochloride], the IC50 is 14 µM with survivin (setting [4]); 10 to 30 µM in data set [2]; 8 to 9 µM with A549 (lung carcinoma) (A549, read-out: A549 IC50); 18 µM with VEGF (read-out: VEGF IC50; VEGF released into media by DFO-treated cells, normalized to cell count). Besides, the DNA fragmentation entry in data set [1] is “Positive”.

As for `C[C@H](Cc1ccc(OCCCCN2CCOCC2)c(OCCCCN2CCOCC2)c1)[C@@H](C)Cc1ccc(OCCCCN2CCOCC2)c(OCCCCN2CCOCC2)c1` [Compound M, 1,4-bis{3,4-bis[4-(N-morpholino)butoxyl]phenyl}-2,3-dimethyl-(2R,3S)-butane], the half-maximal inhibitory concentration (IC50) in the data set with survivin (survivin protein in cell lysates, normalized to total protein; read-out: Survivin IC50) is 5 µM; in data set [2] (MTS assay) it was 5 to 10 µM; with A549 (lung carcinoma) (setting [5]), 1 to 5 µM; with VEGF (VEGF released into media by DFO-treated cells, normalized to cell count; read-out: VEGF IC50), ~9 µM and 9 µM. Further, in data set [1], the DNA fragmentation result is reported as “Positive”.

By Papp B→A is commonly meant how fast a substance crosses the layer from the basolateral side. On to `C[C@H]1O[C@@H](O[C@H]2[C@@H](O)C[C@H](O[C@H]3[C@@H](O)C[C@H](O[C@H]4CC[C@@]5(C)[C@H](CC[C@@H]6[C@@H]5C[C@@H](O)[C@]5(C)[C@@H](C7=CC(=O)OC7)CC[C@]65O)C4)O[C@@H]3C)O[C@@H]2C)C[C@H](O)[C@@H]1O` [digoxin, reference compound], for which the “Papp mean A to B” value in the data set with Caco-2 cell monolayers (comparators/control at the concentration in the row (5 or 50 μM), 90 minutes, duplicate monolayers) was 2.28 ×10⁻⁶ cm/s. For the same compound, the “Mass balance mean A to B” value in the data set on Caco-2 cell monolayers (comparators/control, 90 minutes) is 73%. In addition, the “Mass balance mean B to A” value in the data set with Caco-2 cell monolayers (control, 90 minutes) worked out at 79%. Also, the basolateral-to-apical permeability (Papp B→A) at 90 min in data set [3] is 12.4 ×10⁻⁶ cm/s.

For the compound `C[C@H](Cc1ccc(OCCN(C)C)c(OCCN(C)C)c1)[C@@H](C)Cc1ccc(OCCN(C)C)c(OCCN(C)C)c1` [Compound G, 1,4-bis{3,4-bis(2-(N,N′-dimethylamino)-ethoxy)phenyl}-2,3-dimethyl-(2R,3S)-butane], the IC50 in data set [2] is 15 to 20 µM; in the data set with A549 (lung carcinoma) (A549, read-out: A549 IC50), 15 to 20 µM; in the data set on VEGF (read-out: VEGF IC50; VEGF released into media by DFO-treated cells, normalized to cell count; listed as G in H2O), 25 µM.

As for `CC(C)NCC(O)COc1cccc2ccccc12` (stereo not drawn) [propranolol, reference compound], the “Mass balance mean A to B” value in the data set on Caco-2 cell monolayers (human, Caco-2, 90 min, pH 7.4) stood at 71%.
